From patent US8759366B2, “Aminopyrimidines as SYK inhibitors” (Merck Sharp & Dohme Corp., priority 2009, dated 2014) come the findings set out here.

pIC50: −log10 of the molar value.

The first experiment concerns the target recombinant human SYK (GST-hSYK fusion protein) (Homo sapiens (Human), UniProt P43405). As to conditions: read-out: rhSYK Activity; Table 21.
Description: Homogeneous Time-Resolved Fluorescence (HTRF) Assay for the Recombinant Human SYK Enzyme:
For the compound `O=C(NC1CC1)C1CCC(c2ncc(-c3cccc(Nc4nccc(C(F)(F)F)n4)c3)s2)CC1` (stereo not shown) [Example 21-13], the pIC50 was greater than 7.00.

Staying with this experiment, now noted: read-out: rhSYK Activity; Table 24.
For `CC1(c2ncc(-c3cc(Nc4nccc(C(F)(F)F)n4)cc(N4CCOCC4)c3)s2)OCCO1` [Example 24-2], the pIC50 was greater than 7.00.

The same experiment, now with this note: read-out: rhSYK Activity; Table 26.
On to `Cc1cc(Nc2nccc(C(F)(F)F)n2)cc(-c2cnc(C3(F)CCC(C(=O)O)CC3)s2)c1` (stereo not shown) [Example 26-1], for which the pIC50 is greater than 7.00.
On the same count and under the same terms, for `CCOC(=O)C1CCC(F)(c2ncc(-c3cccc(Nc4nccc(C(F)(F)F)n4)c3)s2)CC1` (stereo not shown) [Example 26-5] the value was 5.00 to 6.00.

The experiment is the same for the next values; noted with them: read-out: rhSYK Activity; Table 33-A.
Regarding `CCOC(=O)C1CCC(O)(c2ncc(-c3cc(C)cc(Nc4nccc(C(F)(F)F)n4)c3)s2)CC1` (stereo not shown) [33A-5], the pIC50 is greater than 7.00.
As to `CCOC(=O)C1(C)CCC(O)(c2ncc(-c3cc(C)cc(Nc4nccc(C(F)(F)F)n4)c3)s2)CC1` (stereo not shown) [33A-10], the pIC50 was greater than 7.00.
Regarding `Cc1cc(Nc2ncc(F)c(C3CC3)n2)cc(-c2cnc(C3(O)CCC(C(=O)O)CC3)s2)c1` (stereo not shown) [33A-1], the pIC50 is greater than 7.00.
Regarding `Cc1cc(Nc2nccc(C(F)(F)F)n2)cc(-c2cnc(C3(O)CCC(c4ccc(C(=O)O)cc4)CC3)s2)c1` (stereo not shown) [33A-17], the pIC50 is greater than 7.00.

The same experiment, now with this note: read-out: rhSYK Activity; Table 33B.
As for `CCC1C(C)C(C(=O)O)CCC1(O)c1ncc(-c2cc(C)cc(Nc3nccc(C(F)(F)F)n3)c2)s1` (single isomer, unassigned) [Example 33B-41], the pIC50 was greater than 7.00.
In the case of `Cc1cc(Nc2nccc(C)n2)cc(-c2cnc(C3(O)CCC(C(=O)O)C(C)C3)s2)c1` (single isomer, unassigned) [Example 33B-33], the pIC50 was greater than 7.00.
Regarding `Cc1cc(Nc2nccc(C(F)(F)F)n2)cc(-c2cnc(C3(O)CCCC(c4ccc(C(=O)O)cc4)C3)s2)c1` (single isomer, unassigned) [Example 33B-16], the pIC50 is greater than 7.00.
On the same count and under the same terms, in the case of `Cc1cc(Nc2nccc(C)n2)cc(-c2cnc(C3(O)CCC(C(=O)O)C(c4ccsc4)C3)s2)c1` (stereo not shown) [Example 33B-30] it was 6.00 to 7.00; in that of `Cc1cc(Nc2nccc(C(F)(F)F)n2)cc(-c2cnc(C3(O)CCCC3Cc3ccc(C(C)C(=O)O)cc3)s2)c1` (stereo not shown) [Example 33B-2], greater than 7.00.
Turning to `Cc1cc(Nc2nccc(C(F)(F)F)n2)cc(-c2cnc(C3(O)CC(C(=O)O)C(C)(C)C3)s2)c1` (single isomer, unassigned) [Example 33B-7], the pIC50 is greater than 7.00.
Take `Cc1cc(Nc2nccc(C(F)(F)F)n2)cc(-c2cnc(C3(O)CCCC(c4ccc(C(=O)O)cc4)C3)s2)c1` (single isomer, unassigned) [Example 33B-15]: the pIC50 is greater than 7.00.

Still in this experiment, the particulars now being: read-out: rhSYK Activity; Table 33D.
For `Cc1cc(Nc2nccc(C(F)(F)F)n2)cc(-c2cnc(C(C)(O)c3ccc(C(=O)O)cc3)s2)c1` (stereo not shown) [Example 33D-16], the pIC50 was greater than 7.00.
`COC(=O)C(C)(C)/C=C/C(C)(O)c1ncc(-c2cc(C)cc(Nc3nccc(C(F)(F)F)n3)c2)s1` (stereo not shown) [Example 33D-6]: the pIC50 was greater than 7.00.
Still for that read-out and setting: for `Cc1cc(Nc2nccc(C(F)(F)F)n2)cc(-c2cnc(C(C)(O)/C=C/C(C)(C)C(=O)O)s2)c1` (stereo not shown) [Example 33D-5] the value was greater than 7.00.

Staying with this experiment, now noted: read-out: rhSYK Activity; Table 36A.
`Cc1cc(Nc2nccc(C(F)(F)F)n2)cc(-c2cnc(C3CCC4(CC3)OCCO4)s2)c1` [Example 36A-12]: the pIC50 was 6.00 to 7.00.

Still in this experiment, the particulars now being: read-out: rhSYK Activity; Table 113A.
For `COC(=O)[C@H]1CC[C@](O)(c2ncc(-c3cc(C)cc(Nc4nccc(C(F)(F)F)n4)c3)s2)CC1(C)C` [Example 113A-65], the pIC50 was greater than 7.00.
The same measure, in the same setting: for `COc1ccnc(Nc2cc(C)cc(-c3cnc([C@]4(O)CC[C@@H](C(=O)O)[C@@H](C)C4)s3)c2)n1` [Example 113A-17] the value was greater than 7.00; for `CCOC(=O)C1CCC(O)(c2ncc(-c3cc(C)cc(Nc4nccc(C(F)(F)F)n4)c3)s2)C(C)C1C` (stereo not shown) [Example 113A-77], greater than 7.00.

The experiment is the same for the next values; noted with them: read-out: rhSYK Activity; Table 113C.
Take `Cc1cc(Nc2nccc(C(C)C)n2)cc(-c2cnc(C3(O)CCCN(C(=O)OC(C)(C)C)CC3)s2)c1` (stereo not shown) [113C-19]: the pIC50 was greater than 7.00.
On the same count and under the same terms, for `Cc1cc(Nc2nccc(-c3cccs3)n2)cc(-c2cnc(C3(O)CCNC(=O)CC3)s2)c1` (stereo not shown) [113C-12] the value was greater than 7.00; for `Cc1cc(Nc2nccc(C3CC3)n2)cc(-c2cnc(C3(O)CCCN(C(=O)OC(C)(C)C)CC3)s2)c1` (single isomer, unassigned) [113C-17], greater than 7.00.
`Cc1cc(Nc2ncc(Cl)c(C)n2)cc(-c2cnc(C3(O)CCNC(=O)CC3)s2)c1` (stereo not shown) [113C-5]: the pIC50 is greater than 7.00.
Still for that read-out and setting: for `COc1nc(Nc2cc(C)cc(-c3cnc(C4(O)CCNC(=O)CC4)s3)c2)ncc1F` (stereo not shown) [113C-6] the value was greater than 7.00; for `Cc1cc(Nc2nccc(OC(C)C)n2)cc(-c2cnc(C3(O)CCNC(=O)CC3)s2)c1` (stereo not shown) [113C-10], greater than 7.00.
Regarding `COc1nc(Nc2cc(C)cc(-c3cnc(C4(O)CCCNCC4)s3)c2)ncc1Cl` (single isomer, unassigned) [113C-15], the pIC50 is greater than 7.00.
For the compound `Cc1cc(Nc2nccc(C(C)F)n2)cc(-c2cnc(C3(O)CCNC(=O)CC3)s2)c1` (single isomer, unassigned) [113C-3], the pIC50 is greater than 7.00.
As to `Cc1cc(Nc2nccc(C3CC3)n2)cc(-c2cnc(C3(O)CCNC(=O)CC3)s2)c1` (stereo not shown) [113C-2], the pIC50 is greater than 7.00.

The same experiment, now with this note: read-out: rhSYK Activity; Table 113D, lower part (Structure).
For the compound `Cc1cc(Nc2nccc(C(F)(F)F)n2)cc(-c2cnc(C3(O)CCC(C(=O)O)OC3)s2)c1` (single isomer, unassigned) [Example 113D-12], the pIC50 was greater than 7.00.

Still in this experiment, the particulars now being: read-out: rhSYK Activity; Table 113D, upper part.
Regarding `COC(=O)c1ccc(/C=C/c2ncc(-c3cc(C)cc(Nc4nccc(C(F)(F)F)n4)c3)s2)cc1` [Example 113D-4], the pIC50 is 6.00 to 7.00.
For the compound `COC(=O)c1ccc(C2(c3ncc(-c4cc(C)cc(Nc5nccc(C(F)(F)F)n5)c4)s3)CC2)cc1` [Example 113D-8], the pIC50 was 6.00 to 7.00.

Staying with this experiment, now noted: read-out: rhSYK Activity; Table 116A.
For the compound `Cc1cc(Nc2ncc(Cl)c(O)n2)cc(-c2cnc(C3(O)CCC(C(=O)O)C(C)(C)C3)s2)c1` (stereo not shown) [116A-29], the pIC50 is 6.00 to 7.00.
Still for that read-out and setting: in the case of `COc1ccc(Cn2cc(-c3ccnc(Nc4cc(C)cc(-c5cnc(C6(O)CCC(C(=O)O)CC6)s5)c4)n3)nn2)cc1` (stereo not shown) [116A-17] it was greater than 7.00.

The same experiment, now with this note: read-out: rhSYK Activity; Table 119; HTRF assay, IC50 class symbols.
For `Cc1cc(Nc2nccc(C(F)(F)F)n2)cc(-c2cnc(C3(O)CCC(C(=O)NCc4cncnc4)CC3)s2)c1` (stereo not shown) [Example 119-57], the pIC50 was greater than 7.00.
In the case of `Cc1cc(Nc2nccc(C(F)(F)F)n2)cc(-c2cnc(C3(O)CCC(C(=O)N4CCC5(CC4)OCCO5)CC3)s2)c1` (stereo not shown) [Example 119-140], the pIC50 was greater than 7.00.
The same measure, in the same setting: in the case of `Cc1cc(Nc2nccc(C(F)(F)F)n2)cc(-c2cnc(C3(O)CCC(C(=O)NCc4ccno4)CC3)s2)c1` (stereo not shown) [Example 119-43] it was greater than 7.00; in that of `Cc1cc(Nc2nccc(C(F)(F)F)n2)cc(-c2cnc(C3(O)CCC(C(=O)NCc4cc(O)no4)CC3)s2)c1` (stereo not shown) [Example 119-65], greater than 7.00.
As for `Cc1cc(Nc2nccc(C(F)(F)F)n2)cc(-c2cnc(C3(O)CCC(C(=O)NO)CC3)s2)c1` (stereo not shown) [Example 119-16], the pIC50 was greater than 7.00.
As to `Cc1cc(Nc2nccc(C(F)(F)F)n2)cc(-c2cnc(C3(O)CCC(C(=O)NCCN4CCCC4)CC3)s2)c1` (stereo not shown) [Example 119-64], the pIC50 is greater than 7.00.
`Cc1cc(Nc2nccc(C(F)(F)F)n2)cc(-c2cnc(C3(O)CCC(C(=O)NCc4ncc[nH]4)CC3)s2)c1` (stereo not shown) [Example 119-38]: the pIC50 was greater than 7.00.

Staying with this experiment, now noted: read-out: rhSYK Activity; recombinant human SYK, HTRF assay; class symbols.
Take `Cc1cc(Nc2nccc(C(F)(F)F)n2)cc(-c2cnc(C3(O)CCCN(CC(F)(F)F)CC3)s2)c1` (single isomer, unassigned) [Example 54A-85]: the pIC50 was greater than 7.00.
As to `COc1nc(Nc2cc(C)cc(-c3cnc(C4(O)CCCN(C(=O)c5cnn[nH]5)CC4)s3)c2)ncc1Cl` (single isomer, unassigned) [Example 54D-32], the pIC50 is greater than 7.00.
Regarding `Cc1cc(Nc2nccc(C(F)(F)F)n2)cc(-c2cnc(C3(O)CN(C(N)=O)C3)s2)c1` [Example 54B-1], the pIC50 was greater than 7.00.
On the same count and under the same terms, in the case of `COC(=O)NS(=O)(=O)N1CCC(O)(c2ncc(-c3cc(C)cc(Nc4nccc(OC)n4)c3)s2)CC1` [Example 54A-18] it was greater than 7.00; in that of `Cc1cc(Nc2nccc(C(F)(F)F)n2)cc(-c2cnc(C3(O)CCCN(C(=O)c4ccc(O)c(F)c4)CC3)s2)c1` (racemic) [Example 54D-103], greater than 7.00; in that of `Cc1cccc(NC(=O)N2CCC(O)(c3ncc(-c4cc(C)cc(Nc5nccc(C(F)(F)F)n5)c4)s3)CC2)c1` [Example 54A-63], greater than 7.00.
With `COc1nc(Nc2cc(C)cc(-c3cnc(C4(O)CCN(C(N)=O)C4)s3)c2)ncc1F` (stereo not shown) [Example 54B-18], the pIC50 was greater than 7.00.
Regarding `Cc1cc(Nc2nccc(C(C)C)n2)cc(-c2cnc(C3(O)CCCN(C(=O)c4nnnn4C)CC3)s2)c1` (stereo not shown) [Example 54D-18], the pIC50 is greater than 7.00.
On to `COC(=O)CCN1CCCC(O)(c2ncc(-c3cc(C)cc(Nc4nccc(C(F)(F)F)n4)c3)s2)CC1` (stereo not shown) [Example 54A-88], for which the pIC50 is greater than 7.00.
Same read-out and setting: in the case of `Cc1cc(Nc2nccc(C(F)(F)F)n2)cc(-c2cnc(C3(O)CCCN(CC(=O)OC(C)(C)C)CC3)s2)c1` (stereo not shown) [Example 54A-89] it was greater than 7.00.
In the case of `Cc1cc(Nc2nccc(C(F)(F)F)n2)cc(-c2cnc(C3(O)CCCN(CC(F)(F)F)CC3)s2)c1` (single isomer, unassigned) [Example 54A-86], the pIC50 is greater than 7.00.
Take `Cc1cc(Nc2ncc(F)c(C)n2)cc(-c2cnc(C3(O)CCN(C(N)=O)C3)s2)c1` (stereo not shown) [Example 54B-16]: the pIC50 is greater than 7.00.

Staying with this experiment, now noted: read-out: rhSYK activity.
For the compound `Cc1cc(Nc2nccc(OCCN3CC(F)C(F)C3)n2)cc(-c2cnc(C3(O)CCC3)s2)c1` (stereo not shown) [Example 108A-5], the pIC50 is greater than 7.00.
For `Cc1cc(Nc2nccc(OC3CCNCC3)n2)cc(-c2cnc(C3(NC(N)=O)CCC3)s2)c1` [Example 64-5], the pIC50 is greater than 7.00.
For `COc1ccnc(Nc2cc(C)cc(-c3cnc(C4(NC(N)=O)CCC4)s3)c2)n1` [Example 64-4], the pIC50 was greater than 7.00.
